Assay results reported in the CombiSolv-Exp solvation set (Vermeire and Green 2021).

Assay: solvent given as SMILES
[1] = in CC(C)CCCC(C)CCCC(C)CCCCC(C)CCCC(C)CCCC(C)C
[2] = in CCCCCCCCC=CCCCCCCCC(=O)OCC(COC(=O)CCCCCCCC=CCCCCCCCC)OC(=O)CCCCCCCC=CCCCCCCCC

CCC(C)(C)C
solvation free energy, 298 K (in C=CCCCCCCCCCCCCCC): -3.12 kcal/mol
solvation free energy, 298 K (in CC#N): -2.32 kcal/mol
solvation free energy, 298 K [1]: -3 kcal/mol
solvation free energy, 298 K (in CC(C)O): -2.73 kcal/mol
solvation free energy, 298 K (in CCC(C)(C)OC): -3.49 kcal/mol
solvation free energy, 298 K (in CCCCCC): -3.63 kcal/mol
solvation free energy, 298 K (in CCCCCCCCCC): -3.38 kcal/mol
solvation free energy, 298 K (in CCCCCCCCCCCCCCCC): -3.18 kcal/mol
solvation free energy, 298 K (in CCCCCCCCCOC(=O)c1ccccc1C(=O)OCCCCCCCCC): -2.76 kcal/mol
solvation free energy, 298 K (in CCCCCO): -2.93 kcal/mol
solvation free energy, 298 K (in CCCCO): -2.89 kcal/mol
solvation free energy, 298 K (in CN1CCCC1=O): -2.13 kcal/mol
solvation free energy, 298 K (in CN(C)C=O): -2.33 kcal/mol
solvation free energy, 298 K (in O): 2.51 kcal/mol

CC(C)COCC(C)C
solvation free energy, 298 K (in CCCCCCCCCCCCCCCC): -4.72 kcal/mol
solvation free energy, 298 K (in CCCCCCCCO): -4.62 kcal/mol

ClC=C(Cl)Cl
solvation free energy, 298 K (in C1COCCO1): -4.91 kcal/mol
solvation free energy, 298 K (in CC(=O)N(C)C): -4.8 kcal/mol
solvation free energy, 298 K [2]: -4.37 kcal/mol
solvation free energy, 298 K (in CCCCCCCCCC): -3.84 kcal/mol
solvation free energy, 298 K (in CCCCCCCCO): -4.09 kcal/mol
solvation free energy, 298 K (in CCCCN(C=O)CCCC): -4.62 kcal/mol
solvation free energy, 298 K (in CNC(C)=O): -4.35 kcal/mol
solvation free energy, 298 K (in O): -0.46 kcal/mol

Clc1c(Cl)c(Cl)c(Cl)c(Cl)c1Cl
solvation free energy, 298 K (in C1CCOC1): -11 kcal/mol
solvation free energy, 298 K (in C1COCCO1): -10.8 kcal/mol
solvation free energy, 298 K (in CC(C)CC(C)(C)C): -10 kcal/mol
solvation free energy, 298 K (in CC(C)CCO): -9.59 kcal/mol
solvation free energy, 298 K (in CCCC(C)O): -9.45 kcal/mol
solvation free energy, 298 K (in CCCCC(CC)CO): -9.86 kcal/mol
solvation free energy, 298 K (in CCCCCC): -10.2 kcal/mol
solvation free energy, 298 K (in CCCCCCC): -10.2 kcal/mol
solvation free energy, 298 K (in CCCCCCCC): -10.3 kcal/mol
solvation free energy, 298 K [2]: -9.52 kcal/mol
solvation free energy, 298 K (in CCCCCCCCCC): -10.3 kcal/mol
solvation free energy, 298 K (in CCCCCCCCO): -9.78 kcal/mol
solvation free energy, 298 K (in CCCCCl): -10.6 kcal/mol
solvation free energy, 298 K (in CCCCOC(C)=O): -10.4 kcal/mol
solvation free energy, 298 K (in CCCCOCCCC): -10.4 kcal/mol
solvation free energy, 298 K (in CCOC(C)=O): -10.2 kcal/mol
solvation free energy, 298 K (in COC(C)=O): -10.2 kcal/mol

Cc1cncc(C)c1
solvation free energy, 298 K (in O): -4.84 kcal/mol

Cc1ccccc1C(=O)N(O)c1ccccc1
solvation free energy, 298 K (in O): -11.5 kcal/mol

C=C1CC=C(C(C)C)CC1
solvation free energy, 298 K (in O): 0.05 kcal/mol

CC(C(=O)O)c1ccc(C(=O)c2cccs2)cc1 (stereo not given)
solvation free energy, 298 K (in O): -13.9 kcal/mol

Nc1ccccc1[N+](=O)[O-]
solvation free energy, 298 K (in CC(C)CC(C)(C)C): -7.5 kcal/mol
solvation free energy, 298 K (in CCCCCC): -7.51 kcal/mol
solvation free energy, 298 K (in O): -7.43 kcal/mol

C1COCCOCCOCCOCCOC1
solvation free energy, 298 K (in Cc1cccc(C)c1): -11.4 kcal/mol
solvation free energy, 298 K (in O): -12.5 kcal/mol

CCCC(C)CO (stereo not given)
solvation free energy, 298 K (in CCCCCCCC): -4.89 kcal/mol
solvation free energy, 298 K (in CCCCCCCCCC): -4.82 kcal/mol

CCOC(=O)CCC(=O)OCC
solvation free energy, 298 K (in O): -5.71 kcal/mol

O=[N+]([O-])c1cccc(Cl)c1
solvation free energy, 298 K (in O): -4.45 kcal/mol

Oc1ccccc1Cl
solvation free energy, 298 K (in CC(C)CC(C)(C)C): -5.44 kcal/mol
solvation free energy, 298 K (in CCCCCC): -5.72 kcal/mol
solvation free energy, 298 K (in CCCCCCC): -5.71 kcal/mol
solvation free energy, 298 K (in CCCCCCCC): -5.67 kcal/mol
solvation free energy, 298 K (in CCCCCCCCCC): -5.63 kcal/mol
solvation free energy, 298 K (in Cc1ccc(C)cc1): -6.37 kcal/mol
solvation free energy, 298 K (in Cc1cccc(C)c1): -6.42 kcal/mol
solvation free energy, 298 K (in Cc1ccccc1C): -6.41 kcal/mol
solvation free energy, 298 K (in O): -4.56 kcal/mol

CC1CCCCC1
solvation free energy, 298 K (in C1CCOC1): -4.67 kcal/mol
solvation free energy, 298 K (in C1COCCO1): -4.09 kcal/mol
solvation free energy, 298 K (in CC1CCS(=O)(=O)C1): -3 kcal/mol
solvation free energy, 298 K (in CC#N): -3.28 kcal/mol
solvation free energy, 298 K (in CC(=O)N(C)C): -3.68 kcal/mol
solvation free energy, 298 K (in CC(C)=O): -3.93 kcal/mol
solvation free energy, 298 K [1]: -4.3 kcal/mol
solvation free energy, 298 K (in CC(C)O): -3.79 kcal/mol
solvation free energy, 298 K (in CCC#N): -4.07 kcal/mol
solvation free energy, 298 K (in CCC(C)=O): -4.12 kcal/mol
solvation free energy, 298 K (in CCCC#N): -3.63 kcal/mol
solvation free energy, 298 K (in CCCCC(CC)COC(=O)c1ccccc1C(=O)OCC(CC)CCCC): -3.99 kcal/mol
solvation free energy, 298 K (in CCCCCCC): -4.79 kcal/mol
solvation free energy, 298 K [2]: -4.26 kcal/mol
solvation free energy, 298 K (in CCCCCCCCCC): -4.57 kcal/mol
solvation free energy, 298 K (in CCCCCCCO): -4.16 kcal/mol
solvation free energy, 298 K (in CCCCN(C=O)CCCC): -4.05 kcal/mol
solvation free energy, 298 K (in CCCCOC(=O)c1ccccc1C(=O)OCCCC): -4.11 kcal/mol
solvation free energy, 298 K (in CCOC(=O)c1ccccc1C(=O)OCC): -3.59 kcal/mol
solvation free energy, 298 K (in CN1CCCC1=O): -3.59 kcal/mol
solvation free energy, 298 K (in CN1CCCCC1=O): -3.72 kcal/mol
solvation free energy, 298 K (in CN(C)C=O): -3.52 kcal/mol
solvation free energy, 298 K (in CNC(C)=O): -3.59 kcal/mol
solvation free energy, 298 K (in CNC=O): -3.18 kcal/mol
solvation free energy, 298 K (in COC(C)(C)C): -4.8 kcal/mol
solvation free energy, 298 K (in COCCO): -3.47 kcal/mol
solvation free energy, 298 K (in CS(C)=O): -2.73 kcal/mol
solvation free energy, 298 K (in NC=O): -1.42 kcal/mol
solvation free energy, 298 K (in Nc1ccccc1): -3.29 kcal/mol
solvation free energy, 298 K (in O): 1.7 kcal/mol
solvation free energy, 298 K (in O=C1CCCO1): -3 kcal/mol
solvation free energy, 298 K (in O=CN1CCOCC1): -2.94 kcal/mol
solvation free energy, 298 K (in OCCCCCO): -2.87 kcal/mol
solvation free energy, 298 K (in OCCCCO): -2.77 kcal/mol
solvation free energy, 298 K (in OCCCO): -2.39 kcal/mol
solvation free energy, 298 K (in OCCO): -1.58 kcal/mol
solvation free energy, 298 K (in OCCOCCO): -2.38 kcal/mol
solvation free energy, 298 K (in OCCOCCOCCO): -2.44 kcal/mol
solvation free energy, 298 K (in OCCOCCOCCOCCO): -2.55 kcal/mol
solvation free energy, 298 K (in OCCS): -2.82 kcal/mol

Cc1cccc(C(=O)O)c1
solvation free energy, 298 K (in C1CCOC1): -10.5 kcal/mol
solvation free energy, 298 K (in C1COCCO1): -10.1 kcal/mol
solvation free energy, 298 K (in CC(C)(C)O): -10.2 kcal/mol
solvation free energy, 298 K (in CC(C)CC(C)O): -10 kcal/mol
solvation free energy, 298 K (in CC(C)CCO): -9.93 kcal/mol
solvation free energy, 298 K (in CC(C)CO): -9.91 kcal/mol
solvation free energy, 298 K (in CC(C)O): -10.1 kcal/mol
solvation free energy, 298 K (in CC(C)OCCO): -10.1 kcal/mol
solvation free energy, 298 K (in CC(O)COC(C)(C)C): -9.97 kcal/mol
solvation free energy, 298 K (in CCC(C)CO): -9.88 kcal/mol
solvation free energy, 298 K (in CCC(C)O): -10.1 kcal/mol
solvation free energy, 298 K (in CCCC(C)CO): -9.89 kcal/mol
solvation free energy, 298 K (in CCCC(C)O): -10 kcal/mol
solvation free energy, 298 K (in CCCCCCCCCCO): -9.65 kcal/mol
solvation free energy, 298 K (in CCCCCCCCO): -9.87 kcal/mol
solvation free energy, 298 K (in CCCCCCCO): -9.91 kcal/mol
solvation free energy, 298 K (in CCCCCCO): -9.94 kcal/mol
solvation free energy, 298 K (in CCCCCO): -9.99 kcal/mol
solvation free energy, 298 K (in CCCCO): -10 kcal/mol
solvation free energy, 298 K (in CCCCOC(C)=O): -9.69 kcal/mol
solvation free energy, 298 K (in CCCCOCCO): -10 kcal/mol
solvation free energy, 298 K (in CCCO): -10.3 kcal/mol
solvation free energy, 298 K (in CCCOCCO): -10.1 kcal/mol
solvation free energy, 298 K (in CCO): -10.2 kcal/mol
solvation free energy, 298 K (in CCOC(C)=O): -9.9 kcal/mol
solvation free energy, 298 K (in CCOCC): -10 kcal/mol
solvation free energy, 298 K (in CCOCCO): -10.1 kcal/mol
solvation free energy, 298 K (in CO): -10.3 kcal/mol
solvation free energy, 298 K (in COC(C)=O): -9.99 kcal/mol
solvation free energy, 298 K (in COC(C)CCO): -10.1 kcal/mol
solvation free energy, 298 K (in O): -6.79 kcal/mol

C1CNCCN1
solvation free energy, 298 K (in O): -7.4 kcal/mol

CC1=CCCCC1
solvation free energy, 298 K (in O): 0.66 kcal/mol

FC(C(F)(F)F)C(F)(F)F
solvation free energy, 298 K (in CCCCCCCCO): -1.12 kcal/mol
solvation free energy, 298 K (in CN1CCCC1=O): -0.6 kcal/mol
solvation free energy, 298 K (in O): 2.01 kcal/mol

C=Cc1ccccc1
solvation free energy, 298 K (in O): -1.27 kcal/mol

N#CCc1ccc(C(=O)O)cc1
solvation free energy, 298 K (in C=CCCCCCCCCCCCCCC): -10.2 kcal/mol
solvation free energy, 298 K (in O): -12.9 kcal/mol

CCOC(C)(C)C
solvation free energy, 298 K (in C1CCCCC1): -4.12 kcal/mol
solvation free energy, 298 K (in CC(=O)N(C)C): -3.53 kcal/mol
solvation free energy, 298 K (in CCCCCC): -4.07 kcal/mol
solvation free energy, 298 K (in CCCCCCC): -3.98 kcal/mol
solvation free energy, 298 K (in CCCCCCCCO): -3.67 kcal/mol
solvation free energy, 298 K (in CCCCN(C=O)CCCC): -3.6 kcal/mol
solvation free energy, 298 K (in CCN1CCCC1=O): -3.42 kcal/mol
solvation free energy, 298 K (in CCN(CC)C(C)=O): -3.66 kcal/mol
solvation free energy, 298 K (in CCNC(C)=O): -3.49 kcal/mol
solvation free energy, 298 K (in CCNC=O): -3.38 kcal/mol
solvation free energy, 298 K (in CCOCC): -4.22 kcal/mol
solvation free energy, 298 K (in CN1CCCCC1=O): -3.44 kcal/mol
solvation free energy, 298 K (in CN(C)C=O): -3.31 kcal/mol
solvation free energy, 298 K (in CNC(C)=O): -3.4 kcal/mol
solvation free energy, 298 K (in CNC=O): -3.21 kcal/mol
solvation free energy, 298 K (in CO): -4.07 kcal/mol
solvation free energy, 298 K (in O): -1.61 kcal/mol

FC(F)(F)c1ccccc1C(F)(F)F
solvation free energy, 298 K (in O): 1.07 kcal/mol
